# Read-outs that look alike come from different tables or passages of the source.
# Experiments:
# human MCH receptor = target: T1, human MCH receptor (Homo sapiens, UniProt Q99705); assay: calcium mobilization assay (FLIPR), functional IC50 of MCH1R antagonists; format: cell-based
# T1 construct: expressed in transfected cells
# Source text: A difference from the reference was, however, the use of the plasmid pEAK8 from EDGE Biosystems (USA) for the construction of the expression vector. The host used for the transfection was a transformed HEK cell line named “PEAK Stable Cells” (likewise from EDGE Biosystems). Functional measurements of the cellular calcium flux after addition of agonist (MCH) in the presence of ligand of the invention took place with the aid of the FLIPR apparatus from Molecular Devices (USA), using protocols of the apparatus manufacturer.
# [1] = nephelometric (kinetic) solubility determination, phosphate buffer pH 7.4; format: physicochemical; details: for solubility kinetic: aqueous buffer, kinetic from dmso stock
# Description: A DMSO solution of the test compound (2.5 mM; 0.5 μl) is pipetted into 200 μl of an aqueous test solution (e.g. phosphate-buffered saline, 10×, 1M, Sigma, adjusted to 10 mM, pH 7.4) in a 96-well microtiter plate, and the turbidity is measured at the resulting theoretical concentration for the test compound of 6.25 μM using a nephelometer (e.g. Nephelostar Galaxy, BMG Labtech). The concentration of the test compound in the aqueous test solution is then raised to a theoretical 12.5 μM by adding further DMSO solution (2.5 mM; 0.5 μl), and the turbidity measurement is repeated. Further additions of DMSO solutions (1 μl, 2.5 mM; 0.5 μl, 10 mM; then 9×1 μl, 10 mM resulting in theoretical concentrations of 25 μM, 50 μM, 100 μM, 150 μM, 200 μM, 250 μM, 300 μM, 350 μM, 400 μM, 450 μM and 500 μM) with turbidity measurement in between complete the measurement process.
# Evaluation: The turbidity values from the nephelometer are plotted against the theoretical concentration of the test compound in the aqueous test solution. As soon as a significant turbidity is detected (e.g. 5 times above the control value of the aqueous test solution) at a theoretical concentration, the level of concentration below this is stated to be the solubility limit of the test compound in the test solution. Thus, the maximum possible measurement range emerges as values<6.25 μM, 6.25-500 μM and >500 μM.
# [2] = recombinant HEK293 cell line expressing the human MCH receptor, calcium flux after addition of agonist (MCH), read-out: IC50
# [3] = nephelometry, Table 8, reference compounds versus inventive examples
# T1 sequence (Q99705 whole entry): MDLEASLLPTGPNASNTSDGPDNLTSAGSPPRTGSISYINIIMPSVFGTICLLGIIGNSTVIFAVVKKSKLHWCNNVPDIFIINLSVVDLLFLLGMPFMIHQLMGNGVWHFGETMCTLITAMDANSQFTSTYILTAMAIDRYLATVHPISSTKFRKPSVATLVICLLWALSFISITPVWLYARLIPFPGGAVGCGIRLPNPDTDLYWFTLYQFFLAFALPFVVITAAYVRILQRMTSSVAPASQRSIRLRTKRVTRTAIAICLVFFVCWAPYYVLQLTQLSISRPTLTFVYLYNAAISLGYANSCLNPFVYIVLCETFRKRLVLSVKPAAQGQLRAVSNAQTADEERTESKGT
Structure (SMILES),IC50 (human MCH receptor; [2]) [nM],"solubility kinetic ([1]; nephelometric, Table 7) [µg/mL]","pH 7.4 (solubility) [1, 3] [mg/ml]",IC50 (human MCH receptor) [nM],"solubility kinetic [1, 3] [µg/mL]"
"CN(C(=O)c1ccc(OCC2CC2)cn1)[C@H]1CCc2cc(CNCC3CCOCC3)ccc2C1 [Example 3, 5-Cyclopropylmethoxypyridine-2-carboxylic acid methyl-((S)-6-{[(tetrahydropyran-4-ylmethyl)amino]methyl}-1,2,3,4-tetrahydronaphthalen-2-yl)amide]",180,> 289,,,
"CN(C(=O)c1ccc(OCC2CC2)cc1)[C@H]1CCc2cc([C@H]3CCCN3)ccc2C1 [Example 4-01, 4-Cyclopropylmethoxy-N-methyl-N—((S)—(R)-6-pyrrolidin-2-yl-1,2,3,4-tetrahydronaphthalen-2-yl)benzamide]",136,> 221,,,
"C[C@H]1CC[C@H](c2ccc3c(c2)CC[C@H](N(C)C(=O)c2ccc(OCC4CC4)cc2)C3)N1 [Example 4-02, 4-Cyclopropylmethoxy-N-methyl-N—[(S)-6-((2R,5S)-5-methylpyrrolidin-2-yl)-1,2,3,4-tetrahydronaphthalen-2-yl]benzamide]",228,10,,,
"CN(C(=O)c1ccc(OCC2CC2)cc1)[C@H]1CCc2cc(C3CCCCN3)ccc2C1 (stereo partly drawn) [Example 4-03, 4-Cyclopropylmethoxy-N-methyl-N—((S)-6-piperidin-2-yl-1,2,3,4-tetrahydronaphthalen-2-yl)-benzamide]",788,10,,,
"CN(C(=O)c1ccc(OCC2CC2)cn1)[C@H]1CCc2cc(C3CCCN3)ccc2C1 (stereo partly drawn) [Example 4-04, N-Methyl-N—((S)-6-pyrrolidin-2-yl-1,2,3,4-tetrahydronaphthalen-2-yl)-5-cyclopropylmethoxypyridine-2-carboxamide]",703,> 41,,,
CN1CCC[C@@H]1c1ccc2c(c1)CC[C@H](N(C)C(=O)c1ccc(OCC3CC3)cc1)C2 [Example 5-01],137,> 266,,,
CCN1CCC[C@@H]1c1ccc2c(c1)CC[C@H](N(C)C(=O)c1ccc(OCC3CC3)cc1)C2 [Example 5-02],152,> 273,,,
CN(C(=O)c1ccc(OCC2CC2)cc1)[C@H]1CCc2cc([C@H]3CCCN3CC3CCOCC3)ccc2C1 [Example 5-03],858,15,,,
C[C@H]1CC[C@H](c2ccc3c(c2)CC[C@H](N(C)C(=O)c2ccc(OCC4CC4)cc2)C3)N1C [Example 5-04],134,> 273,,,
CCN1[C@@H](c2ccc3c(c2)CC[C@H](N(C)C(=O)c2ccc(OCC4CC4)cc2)C3)CC[C@@H]1C [Example 5-05],519,168,,,
CCN1CCCCC1c1ccc2c(c1)CC[C@H](N(C)C(=O)c1ccc(OCC3CC3)cc1)C2 (stereo partly shown) [Example 5-07],370,> 280,,,
CN1CCCC1c1ccc2c(c1)CC[C@H](N(C)C(=O)c1ccc(OCC3CC3)cn1)C2 (stereo partly shown) [Example 5-10],646,13,,,
CCCCOc1ccc(C(=O)N[C@H]2CCc3cc(CN4CCCC4)ccc3C2)cc1 [Example 6-01],127,13,0.013,,
CC[C@H](O)COc1ccc(C(=O)N[C@H]2CCc3cc(CN4CCCC4)ccc3C2)cc1 [Example 6-02],223,> 268,>0.268,,
CCCCOc1ccc(C(=O)N(C)[C@H]2CCc3cc(CN4CCCC4)ccc3C2)cc1 [Example 6-03],327,> 267,>0.267,,
CC[C@H](O)COc1ccc(C(=O)N(C)[C@H]2CCc3cc(CN4CCCC4)ccc3C2)cc1 [Example 6-04],1200,> 275,>0.275,,
CN(C(=O)c1ccc(OCC2CC2)cc1)[C@H]1CCc2cc(CN3CCCC3)ccc2C1 [Example 6-05],153,199,,,
O=C(N[C@H]1CCc2cc(CN3CCCCCC3)ccc2C1)c1ccc(COC2CCC2)cc1 [Example 6-06],75,28,,,
O=C(N[C@H]1CCc2cc(CN3CCCCCC3)ccc2C1)c1ccc(NC(=O)C2CCCC2)cc1 [Example 6-07],,< 4,,332,
O=C(N[C@H]1CCc2cc(CN3CCCCCC3)ccc2C1)c1ccc(OCC2CCC2)cc1 [Example 6-08],168,< 4,,,
"O=C(N[C@H]1CCc2cc(CN3CCCC3)ccc2C1)c1ccc(-c2ccc(F)cc2)cc1 [Ref-1, reference compound]",,,,,3
"CN(C(=O)c1ccc(-c2ccc(F)cc2)cc1)[C@H]1CCc2cc(CN3CCCC3)ccc2C1 [Ref-2, reference compound]",,,,,7
